{"source": "patent US8778963B2", "about": "“Hydroxylamine and oxime substituted imidazoquinolines, imidazopyridines, and imidazonaphthyridines” (3M Innovative Properties Company, priority 2003, dated 2014)"}
{"units": {"melting point": "°C"}}
{"smiles": "CCCc1nc2c(N)nc(C)c(C)c2n1CCCCN(OC)C(=O)OC(C)(C)C", "note": "[Example 26, N-[4-(4-Amino-6,7-dimethyl-2-propyl-1H-imidazo[4,5-c]pyridin-1-yl)butyl]-N-[tert-butyl-carbamate]-O-methylhydroxylamine]", "melting point": "127 to 128"}
{"smiles": "CCCc1nc2c(N)nc(C)c(C)c2n1CCCCN(OC)C(=O)c1ccccc1", "note": "[Example 27, N-Methoxy-N-[4-(4-amino-6,7-dimethyl-2-propyl-1H-imidazo[4,5-c]pyridin-1-yl)-butyl]benzamide]", "melting point": "136 to 137"}
{"smiles": "CCCCc1nc2c(N)nc3ccccc3c2n1CCCC(=NO)c1ccccc1", "note": "[Example 28, 4-(4-Amino-2-butyl-1H-imidazo[4,5-c]quinolin-1-yl)-1-phenylbutan-1-one oxime]", "melting point": "242 to 244"}
{"smiles": "CCCCc1nc2c(N)nc3ccccc3c2n1CCCC(=NOC)c1ccccc1", "note": "[Example 29, 4-(4-Amino-2-butyl-1H-imidazo[4,5-c]quinolin-1-yl)-1-phenylbutan-1-one O-methyloximie]", "melting point": "198 to 200"}
{"smiles": "CC(CCCn1c(C)nc2c(N)nc3ccccc3c21)=NO", "note": "[Example 30, 5-(4-Amino-2-methyl-1H-imidazo[4,5-c]quinolin-1-yl)pentan-2-one oxime]", "melting point": "264 to 266"}
{"smiles": "CC(CCCn1c(C)nc2c(N)nc3ccccc3c21)=NOCc1ccccc1", "note": "[Example 31, 5-(4-Amino-2-methyl-1H-imidazo[4,5-c]quinolin-1-yl)pentan-2-one O-benzyloxime]", "melting point": "146 to 148"}
{"smiles": "CON=C(C)CCCn1c(C)nc2c(N)nc3ccccc3c21", "note": "[Example 32, 5-(4-Amino-2-methyl-1H-imidazo[4,5-c]quinolin-1-yl)pentan-2-one O-methyloxime]", "melting point": "158 to 161"}
{"smiles": "CCCCc1nc2c(N)nc3ccccc3c2n1CCCC(C)=NOC", "note": "[Example 33, 5-(4-Amino-2-butyl-1H-imidazo[4,5-c]quinolin-1-yl)pentan-2-one O-methyloxime]", "melting point": "157 to 159"}
{"smiles": "CCOCc1nc2c(N)nc3ccccc3c2n1CCCC(C)=NO", "note": "[Example 34, 5-(4-Amino-2-ethoxymethyl-1H-imidazo[4,5-c]quinolin-1-yl)pentan-2-one oxime]", "melting point": "220 to 223"}
{"smiles": "CCCc1nc2c(N)nc3ccccc3c2n1CCCC(CC(C)C)=NO", "note": "[Example 37, 1-(4-Amino-2-propyl-1H-imidazo[4,5-c]quinolin-1-yl)-6-methylheptan-4-one oxime]", "melting point": "207 to 209"}
{"smiles": "CCCCCCC(CCCn1c(CCC)nc2c(N)nc3ccccc3c21)=NO", "note": "[Example 38, 1-(4-Amino-2-propyl-1H-imidazo[4,5-c]quinolin-1-yl)decan-4-one oxime]", "melting point": "113 to 115"}
{"smiles": "CON=C(C)CC(C)(C)Cn1c(C)nc2c(N)nc3ccccc3c21", "note": "[Example 39, 5-(4-Amino-2-methyl-1H-imidazo[4,5-c]quinolin-1-yl)-4,4-dimethylpentan-2-one O-methyl-oxime]", "melting point": "193 to 195"}
{"smiles": "CCCc1nc2c(N)nc3ccccc3c2n1CC(C)(C)CC(C)=NOC", "note": "[Example 40, 5-(4-Amino-2-propyl-1H-imidazo[4,5-c]quinolin-1-yl)-4,4-dimethylpentan-2-one O-methyloxime]", "melting point": "196 to 198"}
{"smiles": "CON=C(C)CC(C)(C)Cn1cnc2c(N)nc3ccccc3c21", "note": "[Example 41, 5-(4-Amino-1H-imidazo[4,5-c]quinolin-1-yl)-4,4-dimethylpentan-2-one O-methyloxime]", "melting point": "148 to 150"}
{"smiles": "CCCCc1nc2c(N)nc3ccccc3c2n1CCC/C=N/OC", "note": "[Example 42, (1E,Z)-4-(4-amino-2-butyl-1H-imidazo[4,5-c]quinolin-1-yl)butanal O-methyloxime]", "melting point": "153 to 155"}
{"smiles": "CCCc1nc2c(N)nc3ccccc3c2n1CCCCN(O)C(C)=O", "note": "[Example 43, N-[4-(4-Amino-2-propyl-1H-imidazo[4,5-c]quinolin-1-yl)butyl]-N-hydroxyacetamide]", "melting point": "191 to 193"}
{"smiles": "CCCc1nc2c(N)nc3ccccc3c2n1CCCCN(O)C(=O)NC(C)C", "note": "[Example 44, N-[4-(4-Amino-2-propyl-1H-imidazo[4,5-c]quinolin-1-yl)butyl]-N-hydroxy-N′-isopropylurea]", "melting point": "158 to 160"}
{"smiles": "CO/N=C/CCCn1c(C)nc2c(N)nc3ccccc3c21", "note": "[Example 45, 4-(4-Amino-2-methyl-1H-imidazo[4,5-c]quinolin-1-yl)butanal O-methyloxime]", "melting point": "153 to 155"}
{"smiles": "CON(CCCCn1c(C)nc2c(N)nc3ccccc3c21)C(N)=O", "note": "[Example 46, N-[4-(4-Amino-2-methyl-1H-imidazo[4,5-c]quinolin-1-yl)butyl]-N-methoxyurea]", "melting point": "158 to 160"}
{"smiles": "CON(CCCCn1c(C)nc2c(N)nc3ccccc3c21)S(C)(=O)=O", "note": "[Example 47, N-[4-(4-Amino-2-methyl-1H-imidazo[4,5-c]quinolin-1-yl)butyl]-N-methoxymethanesulfonamide]", "melting point": "201 to 203"}
{"smiles": "CCOCc1nc2c(N)nc3ccccc3c2n1C/C(CC)=N/OC", "note": "[Example 48, 1-[4-Amino-2-(ethoxymethyl)-1H-imidazo[4,5-c]quinolin-1-yl]butan-2-one O-methyloxime]", "melting point": "175 to 178"}
{"smiles": "CCCc1nc2c(N)nc3c(c2n1CCCCN(O)C(=O)NC(C)C)CCCC3", "note": "[Example 50, N-[4-(4-Amino-2-propyl-6,7,8,9-tetrahydro-1H-imidazo[4,5-c]quinolin-1-yl)butyl]-N-hydroxy-N′-isopropylurea]", "melting point": "178 to 180"}
{"smiles": "CCc1nc2c(N)nc3ccccc3c2n1CCCNOC", "note": "[Example 51, N-[3-(4-Amino-2-ethyl-1H-imidazo[4,5-c]quinolin-1-yl)propyl]-O-methylhydroxylamine]", "melting point": "210 to 213"}
